Laboratory results from patent publication US8999889B2, “Substituted ketonic isoxazoline compounds and derivatives for combating animal pests” (BASF SE, priority 2010, dated 2015).

Tests used:
Format in all cases: in vivo
Anthonomus grandis = test: Boll weevil (Anthonomus grandis), microtiter plate with insect diet and eggs; conditions: 120 h, egg and larval mortality after 5 days, read-out: mortality in comparison with untreated controls
Procedure: B.7 Boll Weevil (Anthonomus grandis)
For evaluating control of boll weevil (Anthonomus grandis) the test unit consisted of 24-well-microtiter plates containing an insect diet and 20-30 A. grandis eggs.
The compounds were formulated using a solution containing 75% v/v water and 25% v/v DMSO. Different concentrations of formulated compounds were sprayed onto the insect diet at 20 μl, using a custom built micro atomizer, at two replications.
After application, microtiter plates were incubated at about 23±1° C. and about 50±5% relative humidity for 5 days. Egg and larval mortality was then visually assessed.

Spodoptera eridania = test: Southern armyworm (Spodoptera eridania), sprayed lima bean plants; conditions: 96 h, Spodoptera eridania larvae, 4 days after treatment, read-out: mortality in comparison with untreated controls
Procedure: B.4 Southern Armyworm (Spodoptera eridania)
(§1) The active compounds were formulated in cyclohexanone as a 10,000 ppm solution supplied in tubes. The tubes were inserted into an automated electrostatic sprayer equipped with an atomizing nozzle and they served as stock solutions for which lower dilutions were made in 50% acetone:50% water (v/v). A nonionic surfactant (Kinetic®) was included in the solution at a volume of 0.01% (v/v).
(§2) Lima bean plants (variety Sieva) were grown 2 plants to a pot and selected for treatment at the 1st true leaf stage. Test solutions were sprayed onto the foliage by an automated electrostatic plant sprayer equipped with an atomizing spray nozzle. The plants were dried in the sprayer fume hood and then removed from the sprayer. Each pot was placed into perforated plastic bags with a zip closure. About 10 to 11 armyworm larvae were placed into the bag and the bags zipped closed. Test plants were maintained in a growth room at about 25° C. and about 20-40% relative humidity for 4 days, avoiding direct exposure to fluorescent light (24 hour photoperiod) to prevent trapping of heat inside the bags. Mortality and reduced feeding were assessed 4 days after treatment, compared to untreated control plants.

Heliothis virescens = test: Tobacco budworm (Heliothis virescens) I, sprayed cotton plants; conditions: 96 h, Heliothis virescens larvae, 4 days after treatment, read-out: mortality in comparison with untreated controls
Procedure: B.6 Tobacco Budworm (Heliothis virescens) I
as §1
as §2, with “Cotton” for “Lima bean”, “plants” for “plants (variety Sieva)”, “cotyledon” for “1st true leaf”, “budworm” for “armyworm”

Plutella xylostella = test: Diamond back moth (Plutella xylostella), dipped Chinese cabbage leaves; conditions: mortality recorded 24, 72, and 120 hours after treatment, read-out: mortality in comparison with untreated controls
Procedure: If not otherwise specified the test solutions were prepared as follow:
The active compound was dissolved at the desired concentration in a mixture of 1:1 (vol:vol) distilled water:acteon. The test solution was prepared at the day of use and in general at concentrations of ppm (wt/vol).
B.1 Diamond Back Moth (Plutella xylostella)
Leaves of Chinese cabbage were dipped in test solution and air-dried. Treated leaves were placed in petri dished lined with moist filter paper. Mortality was recorded 24, 72, and 120 hours after treatment.

Bemisia argentifolii = test: Silverleaf whitefly (Bemisia argentifolii), sprayed cotton plants; conditions: 72 h, Bemisia argentifolii adults, 3 days after treatment, read-out: mortality in comparison with untreated controls
Excerpt: B.3 Silverleaf Whitefly (Bemisia argentifolii)
as §1
Cotton plants at the cotyledon stage (one plant per pot) were sprayed by an automated electrostatic plant sprayer equipped with an atomizing spray nozzle. The plants were dried in the sprayer fume hood and then removed from the sprayer. Each pot was placed into a plastic cup and about 10 to 12 whitefly adults (approximately 3-5 days old) were introduced. The insects were collected using an aspirator and a nontoxic Tygon® tubing connected to a barrier pipette tip. The tip, containing the collected insects, was then gently inserted into the soil containing the treated plant, allowing insects to crawl out of the tip to reach the foliage for feeding. Cups were covered with a reusable screened lid. […] Mortality was assessed 3 days after treatment, compared to untreated control plants.

Megoura viciae = test: Vetch aphid (Megoura viciae), broad bean leaf disks in microtiter plates; conditions: foliar, 120 h, Megoura viciae adults, 5 days, read-out: mortality in comparison with untreated controls
Procedure: B.5 Vetch aphid (Megoura viciae)
For evaluating control of vetch aphid (Megoura viciae) through contact or systemic means the test unit consisted of 24-well-microtiter plates containing broad bean leaf disks.
The compounds were formulated using a solution containing 75% v/v water and 25% v/v DMSO. Different concentrations of formulated compounds were sprayed onto the leaf disks at 2.5 μl, using a custom built micro atomizer, at two replications. After application, the leaf disks were air-dried and 5-8 adult aphids placed on the leaf disks inside the microtiter plate wells. The aphids were then allowed to suck on the treated leaf disks and incubated at about 23±1° C. and about 50±5% relative humidity for 5 days. Aphid mortality and fecundity was then visually assessed.

Myzus persicae = test: Green peach aphid (Myzus persicae), artificial diet under membrane, systemic; conditions: 72 h, Myzus persicae adults, 3 days, read-out: mortality in comparison with untreated controls
Excerpt: B.8 Green Peach Aphid (Myzus Persicae)
For evaluating control of green peach aphid (Myzus persicae) through systemic means the test unit consisted of 96-well-microtiter plates containing liquid artificial diet under an artificial membrane.
The compounds were formulated using a solution containing 75% v/v water and 25% v/v DMSO. Different concentrations of formulated compounds were pipetted into the aphid diet, using a custom built pipetter, at two replications.
After application, 5-8 adult aphids were placed on the artificial membrane inside the microtiter plate wells. The aphids were then allowed to suck on the treated aphid diet and incubated at about 23±1° C. and about 50±5% relative humidity for 3 days. Aphid mortality and fecundity was then visually assessed.

Ceratitis capitata = test: Mediterranean fruitfly (Ceratitis capitata), microtiter plate with insect diet and eggs; conditions: 120 h, egg and larval mortality after 5 days, read-out: mortality in comparison with untreated controls
Procedure: B.2 Mediterranean Fruitfly (Ceratitis capitata)
For evaluating control of Mediterranean fruitfly (Ceratitis capitata) the test unit consisted of microtiter plates containing an insect diet and 50-80 C. capitata eggs.
The compounds were formulated using a solution containing 75% v/v water and 25% v/v DMSO. Different concentrations of formulated compounds were sprayed onto the insect diet at 5 μl, using a custom built micro atomizer, at two replications. After application, microtiter plates were incubated at about 28±1° C. and about 80±5% relative humidity for 5 days. Egg and larval mortality was then visually assessed.

CC(=O)c1ccc(C2=NOC(c3cc(Cl)cc(Cl)c3)(C(F)(F)F)C2)cc1C (stereo not drawn) [Compound 1-1, 1-{4-[5-(3,5-Dichloro-phenyl)-5-trifluoromethyl-4,5-dihydro-isoxazol-3-yl]-2-methyl-phenyl}-ethanone]
≥ 75%: mortality at 2500 ppm (Anthonomus grandis) | mortality at 300 ppm (Spodoptera eridania) | mortality at 2500 ppm (Heliothis virescens) | mortality at 300 ppm (Plutella xylostella) | mortality at 300 ppm (Bemisia argentifolii) | mortality at 2500 ppm (Megoura viciae) | mortality at 2500 ppm (Myzus persicae) | mortality at 2500 ppm (Ceratitis capitata)

Cc1cc(C2=NOC(c3cc(Cl)cc(Cl)c3)(C(F)(F)F)C2)ccc1C(=O)CC(C)C (stereo not drawn) [Compound 1-2, 1-{4-[5-(3,5-Dichloro-phenyl)-5-trifluoromethyl-4,5-dihydro-isoxazol-3-yl]-2-methyl-phenyl}-3-methyl-butan-1-one]
≥ 75%: mortality at 300 ppm (Spodoptera eridania) | mortality at 2500 ppm (Heliothis virescens) | mortality at 300 ppm (Plutella xylostella) | mortality at 300 ppm (Bemisia argentifolii) | mortality at 2500 ppm (Megoura viciae) | mortality at 2500 ppm (Myzus persicae) | mortality at 2500 ppm (Ceratitis capitata)
